Results reported in article PMC10388362, “Fluorescent Ligands Enable Target Engagement Studies for the Intracellular Allosteric Binding Site of the Chemokine Receptor CXCR2” (Journal of Medicinal Chemistry, 2023).

How the values were obtained:
[1] = target: T1, CXCR2 (Homo sapiens, UniProt P25025); experiment: Membrane-based NanoBRET saturation assay (CXCR2_Nluc membranes); assay type: binding; conditions: cell-free, membranes from HEK293T cells transiently expressing CXCR2_Nluc; read-out: Kd (equilibrium saturation binding)
T1 construct: Promega pNLF1-C (Nluc) #CXCR20TN00; host or cells: HEK293T, transient transfection (PEI)
T1 sequence (P25025 1-360): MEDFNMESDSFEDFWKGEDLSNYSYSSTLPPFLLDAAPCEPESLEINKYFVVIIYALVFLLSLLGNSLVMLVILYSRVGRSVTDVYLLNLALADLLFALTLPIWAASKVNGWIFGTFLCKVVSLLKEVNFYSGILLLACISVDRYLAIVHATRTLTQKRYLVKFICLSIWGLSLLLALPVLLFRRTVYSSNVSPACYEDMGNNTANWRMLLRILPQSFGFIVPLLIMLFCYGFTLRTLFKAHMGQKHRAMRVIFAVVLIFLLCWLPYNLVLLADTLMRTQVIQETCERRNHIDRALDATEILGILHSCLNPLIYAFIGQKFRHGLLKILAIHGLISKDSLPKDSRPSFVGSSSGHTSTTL
Protocol: Membranes from HEK293T cells transiently expressing the respective GPCR were prepared as follows. The medium of the transfected cells was refreshed after 24 h before cells were harvested 48 h post-transfection. The growth medium was removed, and the cells were carefully washed with cold phosphate-buffered saline (10 mL per Ø 15 cm dish). The cells were detached with 15 mL of ice-cold Tris-EDTA buffer (10 mM Tris, 0.5 mM EDTA, 5.4 mM KCl, 140 mM NaCl, pH 7.4) and subsequently centrifuged with 218g for 8 min. The supernatant was removed and the cells were resuspended in 10 mL of Tris-EDTA buffer. The cells were lysed with an Ultraturrax (20,000 rpm) used five times for 5 s with a 25 s break on ice in between. The lysate was centrifuged at 50,830g for 18 min at 4 °C. The supernatant was discarded, and the pellet was homogenized in a membrane buffer (50 mM Tris, 1 mM EDTA, 5 mM MgCl2, 100 μg/mL bacitracin, 5 μg/mL soybean trypsin inhibitor, pH 7.4) with a glass-teflon homogenizer. Aliquots of 250 μL were shock-frozen in liquid nitrogen and directly stored at −80 °C. Finally, the protein concentration was determined using the Lowry method.[43]
(§1) For the establishment of our NanoBRET binding assay, we referred to a recently published protocol.[45] The fluorescent ligands (9a–c) were dissolved in DMSO (1 mM) and further diluted to varying concentrations in an assay buffer (50 mM Na2HPO4, 50 mM KH2PO4, pH 7.4, 1 mg/mL saponin, 5% FBS) and 5 μL of these dilutions were pipetted to a 384-well plate. To determine the total binding, 5 μL of the assay buffer was added to the corresponding wells, while 5 μL of a solution of 3 in the assay buffer (final assay concentration: 1 μM) was used to determine nonspecific binding. Then, 20 μL of the membrane preparations diluted in the assay buffer (2 μg total protein/well) were added and the plates were incubated for 90 min at 37 °C. Subsequently, 5 μL of a furimazine solution (Promega, Mannheim, Germany, final assay dilution: 1:5000) was added to each well (final assay volume: 35 μL) before measuring luminescence with a CLARIOstar microplate reader using 620/10 and 475/30 nm emission filters after 5 min of incubation in the dark. Bioluminescence resonance energy transfer (BRET) was determined as the ratio of acceptor fluorescence and donor luminescence. The algorithms for one-site saturation binding from PRISM9.5 (GraphPad) were utilized to analyze total, nonspecific, and specific binding. Specific binding signals were calculated as a difference of total and nonspecific binding. If required, netBRET values were calculated as the difference between total BRET values and the values obtained in the absence of a fluorescent ligand. For selectivity studies with CCR2, CCR7, CCR9, and CXCR1, we modified the procedure described above.

[2] = target: T2, CCR2 (Homo sapiens, UniProt P41597); experiment: Membrane-based NanoBRET saturation assay, selectivity (CCR2_GSSG_Nluc membranes)
T2 construct: host or cells: HEK293T; membrane preparation
T2 sequence (P41597 1-360 isoform P41597-2): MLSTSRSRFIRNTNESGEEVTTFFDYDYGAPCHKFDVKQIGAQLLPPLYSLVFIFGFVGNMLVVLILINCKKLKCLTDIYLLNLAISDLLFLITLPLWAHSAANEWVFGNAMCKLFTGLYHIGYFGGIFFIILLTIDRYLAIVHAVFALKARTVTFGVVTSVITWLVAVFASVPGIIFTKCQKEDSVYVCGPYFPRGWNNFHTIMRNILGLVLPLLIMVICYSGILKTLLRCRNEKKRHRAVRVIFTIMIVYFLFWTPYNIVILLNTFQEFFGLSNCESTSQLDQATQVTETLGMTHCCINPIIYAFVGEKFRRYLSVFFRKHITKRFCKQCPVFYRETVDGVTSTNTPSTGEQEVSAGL
Protocol: as §1, with “The algorithms for one-site saturation binding from PRISM9.5 (GraphPad) were utilized to analyze total, nonspecific, and specific binding.” left out, “For selectivity studies with CCR2, CCR7, CCR9, and CXCR1, we modified the procedure described above.” left out

[3] = target: T3, CCR9 (Homo sapiens, UniProt P51686); experiment: Membrane-based NanoBRET saturation assay, selectivity (CCR9_Nluc membranes)
T3 construct: host or cells: HEK293T; membrane preparation
T3 sequence (P51686 1-369): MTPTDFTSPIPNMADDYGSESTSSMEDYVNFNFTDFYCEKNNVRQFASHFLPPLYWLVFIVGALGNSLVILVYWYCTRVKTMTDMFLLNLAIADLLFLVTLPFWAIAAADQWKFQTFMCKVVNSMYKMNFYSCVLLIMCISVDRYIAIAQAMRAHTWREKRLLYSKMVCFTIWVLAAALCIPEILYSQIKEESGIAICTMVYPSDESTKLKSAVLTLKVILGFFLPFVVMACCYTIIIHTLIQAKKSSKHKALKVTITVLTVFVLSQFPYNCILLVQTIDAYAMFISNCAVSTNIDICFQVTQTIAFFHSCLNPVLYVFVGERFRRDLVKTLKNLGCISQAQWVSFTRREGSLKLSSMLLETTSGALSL
Protocol: as §1, with “The algorithms for one-site saturation binding from PRISM9.5 (GraphPad) were utilized to analyze total, nonspecific, and specific binding.” left out, “For selectivity studies with CCR2, CCR7, CCR9, and CXCR1, we modified the procedure described above.” left out

Kd [1]: 4.17 ± 0.8 nM
binding to CCR2 [2]: no significant binding
binding to CCR9 [3]: no significant binding
Compound: Cc1ccc([C@H](Nc2c(Nc3cccc(C(=O)NCc4cn(CCOCCOCCOCCNC(=O)c5ccc(C(=O)[O-])c(-c6c7ccc(=[N+](C)C)cc-7oc7cc(N(C)C)ccc67)c5)nn4)c3O)c(=O)c2=O)C(C)(C)C)o1 [9a, (R)-4-((2-(2-(2-(2-(4-((3-((2-((2,2-Dimethyl-1-(5-methylfuran-2-yl)propyl)amino)-3,4-dioxocyclobut-1-en-1-yl)amino)-2-hydroxybenzamido)methyl)-1H-1,2,3-triazol-1-yl)ethoxy)ethoxy)ethoxy)ethyl)carbamoyl)-2-(6-(dimethylamino)-3-(dimethyliminio)-3H-xanthen-9-yl)benzoate]
